Several values for one entry are separate records, joined by “and”; a condition that tells them apart may be missing. Equal values may be shown once.
What was measured:
[1] = biological target: T1, Coenzyme A biosynthesis bifunctional protein CoaBC (Mycobacterium tuberculosis (strain ATCC 25618 / H37Rv), UniProt P9WNZ1); test: Biomol Green assay for MtCoaBC inhibitor, OD650 read; type: functional
T1 sequence (P9WNZ1 whole entry): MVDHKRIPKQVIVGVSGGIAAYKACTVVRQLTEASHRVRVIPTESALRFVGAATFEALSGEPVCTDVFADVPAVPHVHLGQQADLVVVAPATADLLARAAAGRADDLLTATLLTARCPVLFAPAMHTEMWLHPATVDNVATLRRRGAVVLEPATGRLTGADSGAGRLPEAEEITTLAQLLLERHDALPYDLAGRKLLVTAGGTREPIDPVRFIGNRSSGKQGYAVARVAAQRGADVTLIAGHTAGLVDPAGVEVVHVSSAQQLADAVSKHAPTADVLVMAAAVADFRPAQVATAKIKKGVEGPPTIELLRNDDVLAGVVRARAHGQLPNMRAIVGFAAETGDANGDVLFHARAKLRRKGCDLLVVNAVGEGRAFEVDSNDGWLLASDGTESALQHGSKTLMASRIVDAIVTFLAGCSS

[2] = biological target: AMP-activated protein kinase, AMPK; test: AMP-dependent Kinase enzyme assay. An in vitro enzyme assay that detects ADP turnover that is directly proportional to AMPK activity. This uses naive AMPK that is activated during the assay with MK-8722; type: functional, Homo sapiens
[3] = biological target: ClpP1P2 (Mycobacterium tuberculosis (strain ATCC 25618 / H37Rv), UniProt P9WPC3+P9WPC5); test: in vitro assay to detect presence of AMC directly proportional to the activity of ClpP1P2. GHDDI collaboration.; type: functional
[4] = test system: Schistosoma mansoni; test: High throughput screening of compounds against Schistosoma mansoni motility; type: functional; parameters: dose or concentration left out as unconfirmed
[5] = biological target: Polyketide synthase Pks13 (Mycobacterium tuberculosis (strain ATCC 25618 / H37Rv), UniProt I6X8D2); test: Mycobacterium tuberculosis Polyketide synthase 13 Thioesterase (PKS13); type: functional
[6] = test system: Plasmodium falciparum; test: Calibr Malaria Delayed Death Assay SOP; type: functional, organism-based; conditions: for IC50: Plasmodium falciparum
[7] = biological target: T2, Histidine--tRNA ligase (Leishmania infantum, UniProt A4I591); test: Leishmania infantum Histidine tRNA synthetase (LdHisRS); type: functional
T2 sequence (A4I591 whole entry): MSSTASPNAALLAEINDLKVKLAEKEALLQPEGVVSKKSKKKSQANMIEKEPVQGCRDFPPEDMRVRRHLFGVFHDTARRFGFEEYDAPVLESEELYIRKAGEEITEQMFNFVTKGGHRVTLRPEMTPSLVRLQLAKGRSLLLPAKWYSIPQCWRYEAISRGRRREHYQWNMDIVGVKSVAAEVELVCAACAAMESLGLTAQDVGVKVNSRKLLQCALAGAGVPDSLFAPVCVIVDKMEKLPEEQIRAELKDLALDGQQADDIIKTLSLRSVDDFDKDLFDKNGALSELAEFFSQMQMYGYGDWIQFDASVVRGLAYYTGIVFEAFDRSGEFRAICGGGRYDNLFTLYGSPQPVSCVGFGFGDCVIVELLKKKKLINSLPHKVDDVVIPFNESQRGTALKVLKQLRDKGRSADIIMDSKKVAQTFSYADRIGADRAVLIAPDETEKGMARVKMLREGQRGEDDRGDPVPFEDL

[8] = test system: Leishmania donovani; test: Leishmania intramacrophage assay; type: functional, organism-based; conditions: Leishmania donovani

Compound	pIC50 [2]	also measured
Cc1nc(N)nc(C)c1CC(=O)N1CCC2(CC1)OCCCC2O (centres undefined)	< 4	IC50 [1]: > 30.2 µM
COc1ccc(CC2(CO)CCN(c3cc(C#N)ccn3)CC2)cc1	< 4	IC50 [3]: > 100 µM
COc1ccccc1OCc1cc(C(=O)N2CC(O)C2)n[nH]1	< 4	Percent Effect [4]: -18.55%
COc1cc(/C=C/c2ncc(C(=O)O)s2)cc(Cl)c1O	4.507 and 4.461	IC50 [1]: > 50.1 µM and > 30.2 µM (2×) and 45.3 µM; IC50 [5]: 23.7 µM and 18.7 µM
CCc1cc(NCCc2ccc(O)cc2)n2nccc2n1	4.438 and 4.726	Percent Effect [4]: -42.86%
CC(C)c1n[nH]c(C(=O)NC(C)c2ccncc2)c1Br (centres undefined)	< 4	IC50 [1]: > 30.2 µM
Cc1ccnc(NC(=O)c2[nH]nc(C(C)C)c2Br)c1	< 4	pIC50 [6]: 6.433; IC50 [6]: 0.23 µM; IC50 [1]: > 30.2 µM
O=C(NCc1ccccc1)c1nnc2ccc(N3CCOCC3)cc2n1	< 4	IC50 [5]: 16 µM and 24.5 µM
CC(CN1CCN(C)CC1)NC(=O)c1cc(Cl)c2c(c1)OCO2 (centres undefined)	< 4	Percent Effect [4]: -52.41%
c1cc(-c2ccc3c(c2)CCC32CCNCC2)ccn1	< 4	IC50 [7]: > 100 µM
CN(C)S(=O)(=O)N1C[C@H](Oc2cccnc2)[C@H]2OCCC[C@H]21.O=C(O)C(F)(F)F	< 4	
Cc1cnn(CC2CN(Cc3nnc(C4CC4)o3)CCO2)c1 (centres undefined)	< 4	
Cc1cnn(CC2CN(Cc3nnc(-c4occc4C)o3)CCO2)c1 (centres undefined)	< 4	
CCOCC(O)CN1CCN(C(=O)C2CC2)CC1 (centres undefined)	< 4	
Cc1cccc(NC(=O)c2[nH]nc(C(C)C)c2Br)n1	< 4	IC50 [5]: > 100 µM
CC(C)c1n[nH]c(C(=O)Nc2ccccn2)c1Br	< 4	pIC50 [6]: 6.515; IC50 [6]: 0.24 µM
CCc1nnc2n1CCN(C(=O)c1ccc3nc(C)c(C)nc3c1)C2	< 4	Percent Effect [4]: -15.27%
CO[C@@H]1CC[C@H]2[C@H]1OCCN2C(=O)c1ccc(C)o1	< 4	
CN(C)C(=O)Cc1nc(CN2CCCCC2Cn2cccn2)cs1 (centres undefined)	< 4	
Cc1nc(C)n(CC2CCCN(c3ncnc4[nH]ccc34)C2)n1 (centres undefined)	4.827 [middle of 4 runs]	

Compound	pIC50 [2]	also measured
CC1(C)Cc2ccccc2-c2nc(NCCO)[nH]c(=O)c21	4.722 and 4.636 and 4.548 and 4.621	IC50 [5]: 16.8 µM and 19.4 µM
CC(C)(C)NC(=O)CNc1ncccn1	< 4	
O=C1CC2(CCN(Cc3ccc(-c4ccccc4)s3)C2)C(=O)N1 (centres undefined)	< 4	
CCNC(=O)c1nnc2ccc(N3CCOCC3)cc2n1	< 4	
CC(C)c1cc(NC(=O)c2cccnc2)[nH]n1	4.473 and 4.751	
Cc1occc1-c1nc(NC2CCCC2)ncc1-c1ccccn1	< 4	
CCOc1cccc2c1OCC(C(=O)NS(=O)(=O)c1ccc(Cl)cc1)=C2	< 4	
CCCS(=O)(=O)N1CCN(CCCO)CC1	< 4	
FC1(F)CCN(Cc2ccccn2)CC12CCN(c1cccnc1)C2.O=C(O)C(F)(F)F.O=C(O)C(F)(F)F.O=C(O)C(F)(F)F (centres undefined)	< 4	IC50 [8]: > 50.1 µM
Cc1nn(C)c(N2CCOCC2)c1CNC(C)c1ccco1 (centres undefined)	< 4	Percent Effect [4]: -29.3%
CC(C)OCCCNC(=O)c1ccc(-c2ccco2)[nH]c1=O	< 4	
CCOc1cc(C)nc(N2CCN(C(=O)CC)CC2)n1	< 4	
CC(C)c1cc(NC(=O)c2ccncc2)[nH]n1	4.474 and 4.692	
Cn1cnc(S(=O)(=O)N2C[C@@H]3CC[C@H](C2)N(Cc2ccccn2)C3)c1	< 4	
Cc1cc(-c2cnc(NC3CC3)nc2-c2ccco2)on1	< 4 and 4.22	
Cl.Cl.c1cc(COC[C@@H]2CCC[C@@]23CNCCO3)ccn1	< 4	
c1cncc(-c2ccc3c(c2)C2(CCNCC2)CC3)c1	< 4	
CC(C)c1cc(NC(=O)c2ccc([S+]([O-])C(C)C)cc2)[nH]n1 (centres undefined)	5.533 and 5.17	
CCn1cc(NC(=O)NCCN2CCCCCC2=O)cn1	< 4	

— ChEMBL document CHEMBL3988442, “University of Dundee, Small-Polar-MMV Screening Library” (2021)
